Reference: ChEMBL document CHEMBL1201862, “PubChem BioAssay data set” (2004)
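Tested at 5 concentrations; 48 h exposure; 96-well plates; endpoints linearly interpolated, else capped at highest concentration. GI50 marks 50% less growth.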 Activity calls are given as the source filed them. Rule as the data show it: active = GI50 up to about 1.1 µM and inactive = higher.

Key:
Experiment in all cases: NCI-60 cell line screen, 48 h
HCT-116 = test system: HCT-116
RPMI-8226 = test system: RPMI-8226
SK-OV-3 = test system: SK-OV-3
OVCAR-4 = test system: OVCAR-4
MDA-MB-435 = test system: MDA-MB-435
SK-MEL-2 = test system: SK-MEL-2
U-251 = test system: U-251
A498 = test system: A498
NCI-H460 = test system: NCI-H460
DU-145 = test system: DU-145
NCI/ADR-RES = test system: NCI/ADR-RES
UACC-257 = test system: UACC-257
HL-60 = test system: HL-60
KM12 = test system: KM12
CCRF-CEM = test system: CCRF-CEM
UACC-62 = test system: UACC-62
SNB-75 = test system: SNB-75
EKVX = test system: EKVX
NCI-H23 = test system: NCI-H23
HCC 2998 = test system: HCC 2998

Row | SMILES | GI50 (HCT-116) | GI50 (RPMI-8226) | GI50 (SK-OV-3) | GI50 (OVCAR-4) | GI50 (MDA-MB-435) | GI50 (SK-MEL-2) | GI50 (U-251) | GI50 (A498) | GI50 (NCI-H460) | GI50 (DU-145) | GI50 (NCI/ADR-RES) | GI50 (UACC-257) | GI50 (HL-60) | GI50 (KM12) | GI50 (CCRF-CEM) | GI50 (UACC-62) | GI50 (SNB-75) | GI50 (EKVX) | GI50 (NCI-H23) | GI50 (HCC 2998)
1 | O=S(=O)(O)c1ccc2cc(/N=N\c3cc(S(=O)(=O)O)c4cccnc4c3O)ccc2c1 | > 100 µM (inactive) | > 100 µM (inactive) | > 100 µM (inactive) | > 100 µM (inactive) | > 100 µM (inactive) | > 100 µM (inactive) | > 100 µM (inactive) | > 100 µM (inactive) | > 100 µM (inactive) | > 100 µM (inactive) | > 100 µM (inactive) | > 100 µM (inactive) | 1.61 µM (inactive) | > 100 µM (inactive) | 29.7 µM (inactive) | > 100 µM (inactive) | > 100 µM (inactive) | > 100 µM (inactive) | > 100 µM (inactive) | –
2 | CCOC(=O)c1c(-c2cccc(Cl)c2)c(C(=O)OC)c(C)c2sc(C=O)nc12 | 7.14 µM (inactive) | 14.1 µM (inactive) | 26.7 µM (inactive) | 20 µM (inactive) | 19.6 µM (inactive) | 16.8 µM (inactive) | 17.7 µM (inactive) | – | 19.5 µM (inactive) | 17.7 µM (inactive) | 25.8 µM (inactive) | 31.8 µM (inactive) | 17.7 µM (inactive) | 16.7 µM (inactive) | 12.8 µM (inactive) | 15.8 µM (inactive) | 21.6 µM (inactive) | 16.6 µM (inactive) | 51.9 µM (inactive) | –
3 | CN(C)N1C(=O)S/C(=C\c2ccc([N+](=O)[O-])cc2)C1=O | > 100 µM (inactive) | – | > 100 µM (inactive) | > 100 µM (inactive) | > 100 µM (inactive) | > 100 µM (inactive) | 51.5 µM (inactive) | > 100 µM (inactive) | > 100 µM (inactive) | > 100 µM (inactive) | > 100 µM (inactive) | > 100 µM (inactive) | 34 µM (inactive) | > 100 µM (inactive) | 55.2 µM (inactive) | > 100 µM (inactive) | 0.0458 µM (active) | > 100 µM (inactive) | > 100 µM (inactive) | > 100 µM (inactive)
4 | CC1(C)C=CC(=O)C(O)C(C)(C)C1=O (stereo not drawn) | 54.5 µM (inactive) | 21.3 µM (inactive) | > 100 µM (inactive) | > 100 µM (inactive) | 53.3 µM (inactive) | > 100 µM (inactive) | > 100 µM (inactive) | > 100 µM (inactive) | 29.7 µM (inactive) | > 100 µM (inactive) | 72.4 µM (inactive) | 18.8 µM (inactive) | 27.4 µM (inactive) | 65.8 µM (inactive) | 0.13 µM (active) | 52.8 µM (inactive) | 38.7 µM (inactive) | > 100 µM (inactive) | 76.7 µM (inactive) | –
5 | O=C1Nc2ccccc2C(=O)/C1=C/NC(=S)NCCc1ccccc1 | > 100 µM (inactive) | – | > 100 µM (inactive) | > 100 µM (inactive) | > 100 µM (inactive) | > 100 µM (inactive) | > 100 µM (inactive) | – | > 100 µM (inactive) | > 100 µM (inactive) | > 100 µM (inactive) | > 100 µM (inactive) | > 100 µM (inactive) | 55.3 µM (inactive) | – | > 100 µM (inactive) | > 100 µM (inactive) | > 100 µM (inactive) | > 100 µM (inactive) | > 100 µM (inactive)
6 | CCOC(=O)CNC(=O)C(CSCc1ccc(Br)cc1)NC(=O)CCC(N)C(=O)OCC (stereo not drawn) | > 50 µM (inactive) | > 50 µM (inactive) | > 50 µM (inactive) | > 50 µM (inactive) | > 50 µM (inactive) | > 50 µM (inactive) | > 50 µM (inactive) | – | > 50 µM (inactive) | > 50 µM (inactive) | > 50 µM (inactive) | > 50 µM (inactive) | – | 40.6 µM (inactive) | > 50 µM (inactive) | > 50 µM (inactive) | > 50 µM (inactive) | > 50 µM (inactive) | > 50 µM (inactive) | > 50 µM (inactive)
7 | O=c1cc(N2CCCC2)[nH]c(=O)n1-c1ccccc1 | > 100 µM (inactive) | > 100 µM (inactive) | – | > 100 µM (inactive) | > 100 µM (inactive) | > 100 µM (inactive) | > 100 µM (inactive) | – | > 100 µM (inactive) | > 100 µM (inactive) | > 100 µM (inactive) | > 100 µM (inactive) | > 100 µM (inactive) | > 100 µM (inactive) | > 100 µM (inactive) | – | > 100 µM (inactive) | > 100 µM (inactive) | > 100 µM (inactive) | 37 µM (inactive)
8 | Nc1nc(Cl)cc(NCC2(CCO)CCC2)n1 | > 100 µM (inactive) | > 100 µM (inactive) | > 100 µM (inactive) | > 100 µM (inactive) | > 100 µM (inactive) | > 100 µM (inactive) | > 100 µM (inactive) | – | > 100 µM (inactive) | > 100 µM (inactive) | > 100 µM (inactive) | > 100 µM (inactive) | > 100 µM (inactive) | > 100 µM (inactive) | > 100 µM (inactive) | > 10 µM (inactive) | > 10 µM (inactive) | 59.4 µM (inactive) | > 100 µM (inactive) | > 100 µM (inactive)
9 | CCc1ccc(COC(=O)C2=C(C)NC(C)=C(C(=O)OCc3ccc(CC)cn3)C2C2=COCCO2)nc1 | 16.3 µM (inactive) | – | 16.6 µM (inactive) | 25.1 µM (inactive) | 19.5 µM (inactive) | – | 17.5 µM (inactive) | – | 31.5 µM (inactive) | 24.9 µM (inactive) | 22 µM (inactive) | 20.5 µM (inactive) | 22.4 µM (inactive) | 30.7 µM (inactive) | 16.2 µM (inactive) | 13.5 µM (inactive) | 14.4 µM (inactive) | 12.7 µM (inactive) | 20 µM (inactive) | 19.9 µM (inactive)
10 | COc1cc(C(=O)C2CC3(CCC2(O)c2cc(OC)c(OC)c(OC)c2)CC(=O)Nc2ccccc2C3=O)cc(OC)c1OC (stereo not drawn) | 67.1 µM (inactive) | – | > 100 µM (inactive) | 20.2 µM (inactive) | > 100 µM (inactive) | 89.9 µM (inactive) | > 100 µM (inactive) | > 100 µM (inactive) | 21.5 µM (inactive) | > 100 µM (inactive) | > 100 µM (inactive) | > 100 µM (inactive) | 30.5 µM (inactive) | – | 37.3 µM (inactive) | > 100 µM (inactive) | 24.5 µM (inactive) | > 100 µM (inactive) | 88.9 µM (inactive) | 50.7 µM (inactive)
11 | NCC(=O)N[C@H]1c2ccsc2/C(=N/O)[C@H]1O | > 100 µM (inactive) | – | > 100 µM (inactive) | 68.9 µM (inactive) | > 100 µM (inactive) | > 100 µM (inactive) | > 100 µM (inactive) | > 100 µM (inactive) | > 100 µM (inactive) | > 100 µM (inactive) | > 100 µM (inactive) | > 100 µM (inactive) | > 100 µM (inactive) | – | > 100 µM (inactive) | > 100 µM (inactive) | – | > 100 µM (inactive) | > 100 µM (inactive) | > 100 µM (inactive)
12 | CC1(C)CC(=O)c2c(nc3c4c([nH]c(-c5ccc([N+](=O)[O-])cc5)c24)CC(C)(C)C3)C1 | 41.1 µM (inactive) | – | > 100 µM (inactive) | 34 µM (inactive) | 24.7 µM (inactive) | 35.2 µM (inactive) | 26.7 µM (inactive) | 4.26 µM (inactive) | 38.5 µM (inactive) | 81.8 µM (inactive) | 21.5 µM (inactive) | 67 µM (inactive) | 15.6 µM (inactive) | 37.4 µM (inactive) | 10.1 µM (inactive) | 21.7 µM (inactive) | 24.8 µM (inactive) | 61.4 µM (inactive) | 48.5 µM (inactive) | 27.5 µM (inactive)
13 | O=c1c2ccccc2ncn1COCc1ccccc1 | > 100 µM (inactive) | – | > 100 µM (inactive) | > 100 µM (inactive) | > 100 µM (inactive) | > 100 µM (inactive) | > 100 µM (inactive) | > 100 µM (inactive) | – | > 100 µM (inactive) | > 100 µM (inactive) | > 100 µM (inactive) | > 100 µM (inactive) | > 100 µM (inactive) | > 100 µM (inactive) | > 100 µM (inactive) | – | > 100 µM (inactive) | – | > 100 µM (inactive)
14 | COC(=O)[C@H](Cc1ccccc1)NP(=O)(O)OCC1C=CC(n2cc(C)c(=O)[nH]c2=O)O1 (stereo partly drawn) | > 100 µM (inactive) | > 100 µM (inactive) | > 100 µM (inactive) | > 100 µM (inactive) | > 100 µM (inactive) | > 100 µM (inactive) | > 100 µM (inactive) | – | > 100 µM (inactive) | > 100 µM (inactive) | > 100 µM (inactive) | > 100 µM (inactive) | > 100 µM (inactive) | > 100 µM (inactive) | > 100 µM (inactive) | > 100 µM (inactive) | > 100 µM (inactive) | > 100 µM (inactive) | > 100 µM (inactive) | > 100 µM (inactive)
15 | C[C@]12CC[C@H](O)CC1=CC[C@@H]1[C@@H]2CC[C@]2(C)C(=O)CC[C@@H]12 [PRASTERONE] | > 100 µM (inactive) | > 100 µM (inactive) | > 100 µM (inactive) | > 100 µM (inactive) | > 100 µM (inactive) | > 100 µM (inactive) | > 100 µM (inactive) | – | – | > 100 µM (inactive) | > 100 µM (inactive) | > 100 µM (inactive) | – | > 100 µM (inactive) | – | > 100 µM (inactive) | > 100 µM (inactive) | 75.2 µM (inactive) | > 100 µM (inactive) | > 100 µM (inactive)
